Read-outs that look alike come from different tables or passages of the source.
Legend:
[1] = background statement; cited from earlier work
mouse leukemia L-1210 = experiment: Antitumor activity on mouse leukemia L-1210 (T/C percentage of survival); format: in vivo; conditions: i.p. once a day for 5 days, female CDF1 mouse
Procedure: (2) Test for antitumor activity on mouse leukemia L-1210.
Into 6-weeks-old female CDF1 mouse were inoculated 1×10^5 L-1210 cells, and each drug was administered intraperitoneally once a day for 5 consecutive days, starting 24 hours after the inoculation. Physiological saline was administered to a control group. From the average survival periods of the drug-treated group and the control group (abbreviated as T and C, respectively), T/C percentage (T/C×100) was determined.

[2] = tested on: mouse leukemia L-1210 cells; experiment: Inhibitory activity on multiplication of mouse leukemia L-1210 initially cultured cells; format: cell-based; conditions: 48 hours, 37° C., RPMI 1640 with 10% bovine fetal serum
Procedure: (1) Test for inhibitory activity on multiplication of mouse leukemia L-1210 initially cultured cells.
Mouse leukemia L-1210 cells collected from the abdominal cavities of DBA/2 mouse were incubated in a 5% CO2 incubator at 37° C. for 48 hours by using a RPMI 1640 medium containing 10% of bovine fetal serum and 5 μM of 2-mercaptoethanol.

Compound | Antitumor effect shown by T/C percentage (mouse leukemia L-1210; 1 mg/kg) [%] | Antitumor effect shown by T/C percentage (mouse leukemia L-1210; 2 mg/kg) [%] | Antitumor effect shown by T/C percentage (mouse leukemia L-1210; 4 mg/kg) [%] | Antitumor effect shown by T/C percentage (mouse leukemia L-1210; 8 mg/kg) [%] | Solubility in water [µg/mL] | other results
N.N.[Cl][Pt][Cl] [cis-Platin, cis-dichlorodiammineplatinum] | – | – | – | – | – | carcinostatic effect [1]: very excellent
CC1(C)C[NH][Pt]([Cl])([Cl])[NH]1 [compound 1, cis-Dichloro-1,2-diamino-2-methylpropane platinum] | 133 | 171 | 206 | 124 | 5000 | Antitumor effect shown by T/C percentage (mouse leukemia L-1210; 16 mg/kg): 51%
CC(C)(N)CN.[Cl][Pt]([Cl])([Cl])[Cl] [compound 3, cis-Tetrachloro-1,2-diamino-2-methylpropane platinum] | 127 | 139 | 162 | 154 | > 12000 | Antitumor effect shown by T/C percentage (mouse leukemia L-1210; 16 mg/kg): 60%
CCC(C)(N)CN.[Cl][Pt][Cl] (stereo not drawn) [compound 4, cis-Dichloro-1,2-diamino-2-methylbutane platinum] | – | – | – | – | 3500 | –
CCC(N)(CC)CN.O=C([O-])C(=O)[O-].[Pt+2] [compound 6, cis-Oxalato-1,2-diamino-2-ethylbutane platinum] | 130 | 152 | 226 | 206 | – | Antitumor effect shown by T/C percentage (mouse leukemia L-1210; 16 mg/kg): 211%
CCC(N)(CC)CN.[OH][Pt]([OH])([Cl])[Cl] [compound 7, cis-Dichloro-trans-dihydroxy-1,2-diamino-2-ethylbutane platinum] | – | – | – | – | 13000 | –
CCC(N)(CC)CN.[Cl][Pt]([Cl])([Cl])[Cl] [compound 8, cis-Tetrachloro-1,2-diamino-2-ethylbutane platinum] | – | – | – | – | 5000 | –
CCC1C(=O)[O][Pt]2([NH]CC(CC)(CC)[NH]2)[O]C1=O (stereo not drawn) [compound 9, cis-2-Ethylmalonato-1,2-diamino-2-ethylbutane platinum] | – | – | – | – | 25000 | –
CCC(N)(CC)CN.O=C([O-])C(O)C(=O)[O-].[Pt+2] [compound 10, cis-2-Hydroxymalonato-1,2-diamino-2-ethylbutane platinum] | – | – | – | – | 16000 | –
NCC1(N)CCCCC1.[OH][Pt]([OH])([Cl])[Cl] [compound 11, cis-Dichloro-trans-dihydroxy-1-amino-1-aminomethylcyclohexane platinum] | – | – | 162 | 237 | > 2000 | Antitumor effect shown by T/C percentage (mouse leukemia L-1210; 16 mg/kg): 275%; Antitumor effect shown by T/C percentage (mouse leukemia L-1210; 32 mg/kg): 108%; Antitumor effect shown by T/C percentage (mouse leukemia L-1210; 64 mg/kg): 67%
NCC1(N)CCCCC1.[Cl][Pt]([Cl])([Cl])[Cl] [compound 12, cis-Tetrachloro-1-amino-1-aminomethylcyclohexane platinum] | 200 | 259 | 224 | 95 | > 15000 | Antitumor effect shown by T/C percentage (mouse leukemia L-1210; 0.5 mg/kg): 137%
O=C(CCl)[O][Pt]1([O]C(=O)CCl)[NH]CC2(CCCCC2)[NH]1 [compound 15, cis-bis(Chloroacetato)-1-amino-1-aminomethylcyclohexane platinum] | 175 | 200 | 299 | 130 | > 1500 | Antitumor effect shown by T/C percentage (mouse leukemia L-1210; 0.5 mg/kg): 135%
CCC(C(=O)[O-])C(=O)[O-].NCC1(N)CCCCC1.[Pt+2] [compound 17, cis-2-Ethylmalonato-1-amino-1-aminomethyl cyclohexane platinum] | – | – | – | – | – | Solubility in water (Solubility in water): 8000 µg/mL
NCC1(N)CCCC1.[Cl][Pt][Cl] [compound 18, cis-Dichloro-1-amino-1-aminomethylcyclopentane platinum] | 226 | 344 | 141 | 92 | – | IC50 [2]: 0.02 µg/mL; Antitumor effect shown by T/C percentage (mouse leukemia L-1210; 0.5 mg/kg): 179%
NCC1(N)CCCC1.[OH][Pt]([OH])([Cl])[Cl] [compound 19, cis-Dichloro-trans-dihydroxy-1-amino-1-aminomethylcyclopentane platinum] | – | – | 138 | 174 | – | IC50 [2]: 0.60 µg/mL; Antitumor effect shown by T/C percentage (mouse leukemia L-1210; 16 mg/kg): 323%; Antitumor effect shown by T/C percentage (mouse leukemia L-1210; 32 mg/kg): 113%; Antitumor effect shown by T/C percentage (mouse leukemia L-1210; 64 mg/kg): 80%
[Cl][Pt]1([Cl])([Cl])([Cl])[NH]CC2(CCCC2)[NH]1 [compound 20, cis-Tetrachloro-1-amino-1-aminomethyl cyclopentane platinum] | – | – | – | – | 18000 | –
NCC1(N)CCCC1.O=C([O-])C(=O)[O-].[Pt+2] [compound 21, cis-Oxalato-1-amino-1-aminomethylcyclopentane platinum] | 141 | 161 | 189 | 166 | – | Antitumor effect shown by T/C percentage (mouse leukemia L-1210; 0.5 mg/kg): 124%
NCC1(N)CCCC1.O=C([O-])C(O)C(=O)[O-].[Pt+2] [compound 23, cis-2-Hydroxymalonato-1-amino-1-aminomethylcyclopentane platinum] | – | – | – | – | 5000 | –
cis-Dichloro-1,2-diamino-2-ethylbutane platinum [compound 5] | 181 | 291 | 199 | 82 | > 2500 | Antitumor effect shown by T/C percentage (mouse leukemia L-1210; 0.5 mg/kg): 135%
cis-Oxalato-1-amino-1-aminomethylcyclohexane platinum [compound 13] | 188 | 296 | 230 | 218 | > 2500 | IC50 [2]: 0.021 µg/mL; Antitumor effect shown by T/C percentage (mouse leukemia L-1210; 0.5 mg/kg): 146%
cis-bis(Pyruvato)-1-amino-1-aminomethylcyclohexane platinum [compound 16] | – | – | – | – | > 2000 | –

From US4607114A, “Novel platinum complexes” (Nippon Kayaku Kabushiki Kaisha, priority 1983, dated 1986)
